Experimental data as given in patent US12043594B2, “Biphenyl derivative compound and use thereof” (EWHA UNIVERSITY—INDUSTRY COLLABORATION FOUNDATION, priority 2018, dated 2024).

Experiments:
recombinant Nm23-H1 = recombinant Nm23-H1 (Homo sapiens, UniProt P15531); test: NDPK assay with recombinant Nm23-H1; assay type: biochemical; conditions: 5 ng recombinant Nm23-H1, incubated 10 minutes at room temperature, then 5 μM ADP for 1 minute
Experimental: NDPK assay was performed by incubating 5 ng of recombinant Nm23-H1 with each of test compounds (Examples 1 to 3) in NDPK assay buffer (20 mM HEPES, 3 mM MgCl2) at room temperature for 10 minutes, followed by reaction with 5 μM ADP for 1 minute.

MDA-MB-321 cells [1] = test: 3D tumor spheroid model, co-treatment with paclitaxel; assay type: cell-based; conditions: co-treated with paclitaxel, 14 days after treatment, FIG. 5
Experimental: In order to evaluate the effect of co-treatment with paclitaxel (PTX) which is used as a chemotherapeutic agent against triple negative breast cancer, the effect of co-treatment was evaluated using a 3D tumor spheroid model in a manner similar to Example 7.
(§1) Specifically, 7.5 K MDA-MB-321 cells were 3D-cultured in an ultra-low attachment (ULA) 96-well plate (Perkin Elmer) under a 2.5% Matrigel™ (BD Biosciences) condition. 5 days after 3D spheroid production, the cells were co-treated with the compound (B024) of Example 1 according to the present disclosure and paclitaxel in a concentration-dependent manner, and 14 days after the treatment, the cancer cell growth inhibitory effect of co-treatment was evaluated.

MDA-MB-321 cells [2] = test: 3D tumor spheroid model; assay type: cell-based; conditions: various concentrations, 14 days after treatment, FIG. 4
Experimental: The cancer growth inhibitory effect of administration of the compounds according to the present disclosure was evaluated using a 3D tumor spheroid model. The 3D tumor spheroid structure has characteristics similar to solid cancer under normal stress conditions because it is not easy to transfer nutrients into cancer cells.
as §1, with “treated” for “co-treated”, “with various concentrations of” for “with”, “(#24)” for “(B024)”, “disclosure,” for “disclosure and paclitaxel in a concentration-dependent manner,”, “the compound” for “co-treatment”

recombinant Nm23-H1, sequence (P15531 whole entry): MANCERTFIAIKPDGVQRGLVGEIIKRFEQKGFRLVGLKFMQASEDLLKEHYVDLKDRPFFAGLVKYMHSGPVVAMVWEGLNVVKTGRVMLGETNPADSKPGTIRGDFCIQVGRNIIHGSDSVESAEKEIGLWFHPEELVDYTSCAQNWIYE

SMILES	NDPK activity (recombinant Nm23-H1)	cancer cell growth in 3D tumor spheroid model, co-administration with paclitaxel (MDA-MB-321 cells [1])	cancer cell growth in the 3D tumor spheroid model (MDA-MB-321 cells [2])
COc1ccc(C(=O)c2cccc(-c3ccc(OC)c(OC)c3)c2)cc1OC [Example 3, (3′,4′-dimethoxy-[1,1′-biphenyl]-3-yl)(3,4-dimethoxyphenyl)methanone]	1.7		
COc1ccc(-c2cccc(C(O)c3ccc(OC)c(OC)c3)c2)cc1OC (centres unmarked) [Example 1, (3′,4′-dimethoxy-[1,1′-biphenyl]-3-yl)(3,4-dimethoxyphenyl)methanol]	2.8	significantly inhibited cancer cell growth even at low concentrations	significantly inhibited cancer cell growth
COc1ccc(Cc2cccc(-c3ccc(OC)c(OC)c3)c2)cc1OC [Example 2, 3′-(3,4-dimethoxybenzyl)-3,4-dimethoxy-1,1′-biphenyl]	1.4		
